Source: PubChem BioAssay (NCI)
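Following 48 hours of exposure in 96-well plates, responses at five concentrations were used to interpolate endpoints linearly. TGI: total growth inhibition.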

Legend:
Test in all cases: NCI-60 cell line screen, 48 h
LOX IMVI melanoma = tested on: LOX IMVI melanoma
SNB-19 CNS = tested on: SNB-19 CNS
NCI-H460 lung = tested on: NCI-H460 lung
RXF 393 renal = tested on: RXF 393 renal
SR leukemia = tested on: SR leukemia
KM12 colon = tested on: KM12 colon
SN12C renal = tested on: SN12C renal
BT-549 breast = tested on: BT-549 breast
OVCAR-8 ovarian = tested on: OVCAR-8 ovarian
HL-60(TB) leukemia = tested on: HL-60(TB) leukemia
U251 CNS = tested on: U251 CNS
HCC-2998 colon = tested on: HCC-2998 colon
SK-MEL-28 melanoma = tested on: SK-MEL-28 melanoma
COLO 205 colon = tested on: COLO 205 colon
HS 578T breast = tested on: HS 578T breast
CAKI-1 renal = tested on: CAKI-1 renal
MOLT-4 leukemia = tested on: MOLT-4 leukemia
SK-MEL-2 melanoma = tested on: SK-MEL-2 melanoma
NCI/ADR-RES ovarian = tested on: NCI/ADR-RES ovarian
DU-145 prostate = tested on: DU-145 prostate
CCRF-CEM leukemia = tested on: CCRF-CEM leukemia
K-562 leukemia = tested on: K-562 leukemia
UACC-62 melanoma = tested on: UACC-62 melanoma
MDA-MB-435 = tested on: MDA-MB-435
M14 melanoma = tested on: M14 melanoma
EKVX NSCLC = tested on: EKVX NSCLC
SNB-75 CNS = tested on: SNB-75 CNS
MDA-MB-231 breast = tested on: MDA-MB-231 breast
SF-295 CNS = tested on: SF-295 CNS
UO-31 renal = tested on: UO-31 renal
IGROV1 ovarian = tested on: IGROV1 ovarian
SK-MEL-5 melanoma = tested on: SK-MEL-5 melanoma
NCI-H522 lung = tested on: NCI-H522 lung
OVCAR-5 ovarian = tested on: OVCAR-5 ovarian
HOP-62 NSCLC = tested on: HOP-62 NSCLC
T-47D breast = tested on: T-47D breast
A549 NSCLC = tested on: A549 NSCLC
SW-620 colon = tested on: SW-620 colon
HCT-116 colon = tested on: HCT-116 colon
NCI-H23 lung = tested on: NCI-H23 lung
HOP-92 NSCLC = tested on: HOP-92 NSCLC
MCF7 breast = tested on: MCF7 breast
HT29 colon = tested on: HT29 colon
NCI-H226 lung = tested on: NCI-H226 lung
MDA-N = tested on: MDA-N
ACHN renal = tested on: ACHN renal
SF-268 CNS = tested on: SF-268 CNS
OVCAR-3 ovarian = tested on: OVCAR-3 ovarian
786-0 renal = tested on: 786-0 renal
HCT-15 colon = tested on: HCT-15 colon
SK-OV-3 ovarian = tested on: SK-OV-3 ovarian
OVCAR-4 ovarian = tested on: OVCAR-4 ovarian
PC-3 prostate = tested on: PC-3 prostate
TK-10 renal = tested on: TK-10 renal
UACC-257 melanoma = tested on: UACC-257 melanoma
RPMI-8226 leukemia = tested on: RPMI-8226 leukemia
A498 renal = tested on: A498 renal
SF-539 CNS = tested on: SF-539 CNS
MALME-3M melanoma = tested on: MALME-3M melanoma

Measured: TGI

CC1(C)OC(=O)N(c2ccccc2)C12C=Cc1cccc([N+](=O)[O-])c1O2 (stereo not drawn)
74.1 µM: MOLT-4 leukemia
58.7 µM: HL-60(TB) leukemia
94.9 µM: T-47D breast
76.2 µM: SK-OV-3 ovarian
50.2 µM: SR leukemia
not listed: SF-539 CNS | MALME-3M melanoma
> 100 µM: all other assays above

CC(=O)OCC1OC(Nn2c(=O)[nH]c3ccccc3c2=O)C(OC(C)=O)C(OC(C)=O)C1OC(C)=O (stereo not drawn)
53 µM: HCC-2998 colon
not listed: OVCAR-4 ovarian | TK-10 renal
> 100 µM: all other assays above

O=C(c1ccccc1)c1ccc2[nH]c(-c3c(Cl)c(Cl)c(Cl)c(Cl)c3C(=O)N/N=C/c3cccc(Oc4ccccc4)c3)nc2c1
not listed: NCI-H460 lung | HCC-2998 colon | UACC-62 melanoma | A498 renal
> 100 µM: all other assays above

COc1cc(-c2cc(=O)c3c(O)c(CC=C(C)C)c(O)cc3o2)ccc1O
40.8 µM: T-47D breast
43.6 µM: OVCAR-4 ovarian
41.9 µM: SR leukemia
32.5 µM: EKVX NSCLC
39.7 µM: M14 melanoma
20.2 µM: MDA-N
36.3 µM: RPMI-8226 leukemia
26.7 µM: SK-MEL-28 melanoma
22 µM: MDA-MB-435
28 µM: CAKI-1 renal
31.2 µM: SF-295 CNS
47.6 µM: SF-539 CNS
not listed: KM12 colon | HCC-2998 colon | SNB-75 CNS | NCI-H522 lung | 786-0 renal
> 50 µM: all other assays above
